Measurements: patent US20210315869A1, “COMPOUNDS AND METHODS FOR CSK MODULATION AND INDICATIONS THEREFOR” (Plexxikon Inc., priority 2020, published 2021)

Assays:
CSK = molecular target: T1, CSK (Homo sapiens, UniProt P41240); assay: Human CSK enzymatic assay (AlphaScreen, Poly (Glu4-Tyr) substrate); format: biochemical; conditions: 100 uM ATP; read-out: CSK IC50 (μM) COFACTOR: 100 uM ATP
T1 construct: purchased Thermo Fisher
Procedure: This assay measures the ability of CSK to phosphorylate a biotinylated peptide containing multiple tyrosine residues in vitro. The CSK enzyme was purchased from Thermo Fisher. The biotinylated Poly (Glu4-Tyr) peptide substrate was purchased from Sigma-Aldrich. The CSK enzyme assay was performed using 0.75 ng CSK enzyme and 30 nM Poly (Glu4-Tyr) substrate in the presence of 25 mM Hepes pH 7.5, 5 mM Mg Acetate, 0.1% NP-40, 1 mM DTT, 0.01% BSA, and 100 μM ATP. A 19 μL volume of the above reaction mixture was added to wells of 384-well AlphaPlate (PerkinElmer GA, USA) containing 1 μL of various concentrations of test compound or DMSO vehicle and incubated for 60 minutes at room temperature. 16 wells containing all the components of reaction mixture and 5% DMSO serve as high control. 16 wells containing all the components except ATP of reaction mixture and 5% DMSO served as low control. The enzymatic reaction was stopped by the addition of 5 μL stop/detection mixture containing 25 mM Hepes pH 7.5 100 mM EDTA, and 5 μg/mL streptavidin-coated AlphaScreen donor beads (PerkinElmer GA, USA) and incubated for 20 minutes. A 5 μL mixture containing 25 mM Hepes pH 7.5, 100 mM EDTA, and 5 μg/mL anti-phosphotyrosine antibody PY20-coated AlphaScreen acceptor beads (PerkinElmer GA, USA) was added and the plate was incubated for 1 hour at room temperature. The streptavidin donor beads bind to the biotin moiety on the biotinylated Poly (Glu4-Tyr) substrate and the PY20 antibody-coated acceptor beads bind to tyrosine residues on the substrate that have been directly phosphorylated by CSK. Upon excitation of these beads with laser light at 680 nm, singlet oxygen was produced. This singlet oxygen was rapidly quenched, unless the AlphaScreen PY20 acceptor beads are in close proximity, in which case a proximity signal can be measured at 580 nm. In the presence of catalytic activity, there was a very strong proximity signal. Selective CSK inhibitors affect a decrease in this proximity signal through a decrease in phosphorylation of the Poly (Glu4-Tyr) substrate. The percentage of inhibition at individual concentrations relative to high and low controls was calculated. The data were analyzed by using nonlinear regression to generate IC50 values. Human LCK enzymatic assay

LCK = molecular target: T2, LCK (Homo sapiens, UniProt P06239); assay: Human LCK enzymatic assay (AlphaScreen, Poly (Glu4-Tyr) substrate); format: biochemical; conditions: 100 uM ATP; read-out: LCK IC50 (uM) COFACTOR: 100 uM ATP
T2 construct: purchased ProQinase
Procedure: This assay measures the ability of LCK to phosphorylate a biotinylated peptide containing multiple tyrosine residues in vitro. The LCK enzyme was purchased from ProQinase. The biotinylated Poly (Glu4-Tyr) peptide substrate was purchased from Sigma-Aldrich. The LCK enzyme assay was performed using 1 ng LCK enzyme and 30 nM Poly (Glu4-Tyr) substrate in the presence of 25 mM Hepes pH 7.5, 10 mM MnCl2, 50 mM NaCl, 0.01% Tween-20, 0.5 mM DTT, 0.01% BSA, and 100 μM ATP. A 19 μL volume of the above reaction mixture was added to wells of 384-well AlphaPlate (PerkinElmer GA, USA) containing 1 μL of various concentrations of test compound or DMSO vehicle and incubated for 40 minutes at 25° C. 16 wells containing all the components of reaction mixture and 5% DMSO served as high control. 16 wells containing all the components except ATP of reaction mixture and 5% DMSO served as low control. The enzymatic reaction was stopped by the addition of 5 μL stop/detection mixture containing 25 mM Hepes pH 7.5 100 mM EDTA, and 10 μg/mL streptavidin-coated AlphaScreen donor beads (PerkinElmer GA, USA) and incubated for 20 minutes. A 5 μL mixture containing 25 mM Hepes pH 7.5, 100 mM EDTA, and 10 μg/mL anti-phosphotyrosine antibody PY20-coated AlphaScreen acceptor beads (PerkinElmer GA, USA) was added and the plate was incubated for 1 hour at room temperature. The streptavidin donor beads bind to the biotin moiety on the biotinylated Poly (Glu4-Tyr) substrate and the PY20 antibody-coated acceptor beads bind to tyrosine residues on the substrate that have been directly phosphorylated by LCK. Upon excitation of these beads with laser light at 680 nm, singlet oxygen was produced. This singlet oxygen was rapidly quenched, unless the AlphaScreen PY20 acceptor beads are in close proximity, in which case a proximity signal can be measured at 580 nm. In the presence of catalytic activity, there was a very strong proximity signal. Selective LCK inhibitors affect a decrease in this proximity signal through a decrease in phosphorylation of the Poly (Glu4-Tyr) substrate. The percentage of inhibition at individual concentrations relative to high and low controls was calculated. The data were analyzed by using nonlinear regression to generate IC50 values.

Jurkat/NFAT-RE cells = assay: NFAT reporter assay (luciferase) in Jurkat/NFAT-RE cells; format: cell-based; conditions: Homo sapiens, 0.02 μg/mL anti-CD3 antibody OKT3, 3 hours, read-out: Jurkat EC50 (uM) Cell Assay: Reporter Cell Variant: NFAT response element
Excerpt: To assess the ability of CSK inhibitors to activate LCK and stimulate signaling downstream of the T-cell receptor, an NFAT reporter assay was used for monitoring of LCK activation in cells through the activation of LCK-dependent signaling through a reporter assay. The Jurkat T-cell cell line was genetically engineered to express a luciferase reporter that is regulated by the NFAT-response element. (Clipstone, N. A., & Crabtree, G. R., Identification of calcineurin as a key signalling enzyme in T-lymphocyte activation, Nature, 357(6380), 695-697, 1992). Stimulation of the T-cell receptor with anti-CD3 antibody increases the expression of the luciferase reporter. To test the ability of CSK inhibitors to stimulate LCK and downstream T-cell signaling, the cells were stimulated with a suboptimal concentration of anti-CD3 ligand, to measure the ability of CSK inhibitors to increase luciferase expression.
This assay measures the signaling activity downstream of the T-cell receptor, specifically the ability of the NFAT transcription factor to be translocated to the nucleus and induce expression of a firefly luciferase gene. Jurkat/NFAT-RE cells stably expressing the NFAT reporter construct were purchased from BPS Bioscience. The assay was performed by plating 40,000 Jurkat/NFAT-RE cells in a 50 μL volume of serum-free growth media in a 96-well plate. Following an overnight incubation, the cells were treated with CSK inhibitors and 0.02 μg/mL anti-CD3 antibody OKT3 (BD Bioscience) for 3 hours at 37° C. High control wells were stimulated with DMSO and 5 μg/mL OKT3 to maximally stimulate the NFAT reporter, and low control wells were stimulated with DMSO and 0.02 μg/mL OKT3. Following the 3 hour incubation, the cells were assayed for viability using CellTiter-Fluor™ (Promega), and for luciferase expression using ONE-Glo™ (Promega). The ONE-Glo™ signal was normalized to the CellTiter-Fluor™ signal, and the percentage of NFAT activation relative to high and low controls was calculated. The data were analyzed by using nonlinear regression to generate EC50 values. Selective CSK inhibitors affect an increase in luciferase expression in the presence of low level stimulation of the T-cell receptor.

T1 sequence (P41240 whole entry): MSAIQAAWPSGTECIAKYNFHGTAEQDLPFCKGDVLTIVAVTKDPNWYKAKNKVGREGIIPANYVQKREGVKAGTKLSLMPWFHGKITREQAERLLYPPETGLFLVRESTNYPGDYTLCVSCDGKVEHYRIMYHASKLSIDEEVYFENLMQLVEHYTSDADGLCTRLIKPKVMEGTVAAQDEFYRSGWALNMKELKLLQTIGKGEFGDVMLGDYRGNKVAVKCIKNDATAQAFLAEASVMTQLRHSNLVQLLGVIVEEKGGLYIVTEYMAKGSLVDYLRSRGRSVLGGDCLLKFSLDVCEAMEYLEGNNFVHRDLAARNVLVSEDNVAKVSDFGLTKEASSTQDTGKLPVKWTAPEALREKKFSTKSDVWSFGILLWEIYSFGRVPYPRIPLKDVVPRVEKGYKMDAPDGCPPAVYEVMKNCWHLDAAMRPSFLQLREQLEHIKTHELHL
T2 sequence (P06239 whole entry): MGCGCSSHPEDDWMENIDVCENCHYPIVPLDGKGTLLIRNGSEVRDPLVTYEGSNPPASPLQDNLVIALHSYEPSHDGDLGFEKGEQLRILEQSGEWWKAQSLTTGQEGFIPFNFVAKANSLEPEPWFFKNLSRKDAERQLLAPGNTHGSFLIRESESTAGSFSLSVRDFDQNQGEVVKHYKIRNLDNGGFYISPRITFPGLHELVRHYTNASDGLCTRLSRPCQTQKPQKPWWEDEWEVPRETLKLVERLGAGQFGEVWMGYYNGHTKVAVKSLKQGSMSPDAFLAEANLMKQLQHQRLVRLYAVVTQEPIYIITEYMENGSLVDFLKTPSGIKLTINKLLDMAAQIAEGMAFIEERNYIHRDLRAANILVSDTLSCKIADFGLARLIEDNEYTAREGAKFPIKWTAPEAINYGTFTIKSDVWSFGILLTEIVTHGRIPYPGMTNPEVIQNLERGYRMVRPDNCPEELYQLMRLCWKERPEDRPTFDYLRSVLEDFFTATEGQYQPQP

SMILES | IC50 (CSK) | IC50 (LCK) | EC50 (Jurkat/NFAT-RE cells)
O=c1c(-c2c(F)ccc(NS(=O)(=O)c3cc4scnc4cc3F)c2F)cc2cnccc2n1CC1CC1 [P-0025, N-(3-(1-(cyclopropylmethyl)-2-oxo-1,2-dihydro-1,6-naphthyridin-3-yl)-2,4-difluorophenyl)-5-fluorobenzo[d]thiazole-6-sulfonamide] | 0.5 to 5 µM | 5 to 100 µM | 5 to 100 µM
Nc1cc2c(cn1)cc(-c1c(F)ccc(NS(=O)(=O)c3ccc4ncsc4c3)c1F)c(=O)n2C1CC1 [P-0026, N-(3-(7-amino-1-cyclopropyl-2-oxo-1,2-dihydro-1,6-naphthyridin-3-yl)-2,4-difluorophenyl)benzo[d]thiazole-6-sulfonamide] | 0.001 to 0.5 µM | 5 to 100 µM | 0.5 to 5 µM
